Measured values reported in US20250235460A1, “COMBINATION THERAPY USING GLUCOSE-DEPENDENT INSULINOTROPIC POLYPEPTIDE RECEPTOR ANTAGONIST COMPOUNDS AND GLP-1 RECEPTOR AGONIST COMPOUNDS” (Pfizer Inc., priority 2024, published 2025).
Where two headings read alike, the source gives them in different places.

Columns and labels:
Type in all cases: cell-based
[1] = biological target: T1, human Glucose-dependent Insulinotropic Polypeptide Receptor (hGIPR) (Homo sapiens, UniProt P48546); assay: Functional in vitro GIPR antagonist potency assay (cAMP HTRF, CHO-K1 cells stably expressing hGIPR, hGIP stimulation at EC80)
T1 sequence (P48546 22-466): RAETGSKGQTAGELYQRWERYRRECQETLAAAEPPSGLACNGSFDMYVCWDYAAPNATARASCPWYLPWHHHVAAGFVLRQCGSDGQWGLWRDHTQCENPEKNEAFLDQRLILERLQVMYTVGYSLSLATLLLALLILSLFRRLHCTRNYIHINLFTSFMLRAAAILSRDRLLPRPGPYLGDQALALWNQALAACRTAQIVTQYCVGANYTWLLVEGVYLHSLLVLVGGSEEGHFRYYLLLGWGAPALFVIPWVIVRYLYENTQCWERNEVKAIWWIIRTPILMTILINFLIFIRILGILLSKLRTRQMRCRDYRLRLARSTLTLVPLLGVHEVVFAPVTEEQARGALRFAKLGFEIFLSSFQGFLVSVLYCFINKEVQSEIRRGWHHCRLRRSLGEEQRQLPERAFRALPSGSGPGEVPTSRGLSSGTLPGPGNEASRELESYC
Description: The functional in vitro antagonist potency for test compounds was determined by monitoring intracellular cyclic adenosine monophosphate (cAMP) levels in Chinese hamster ovary (CHO)—K1 cells stably expressing the human Glucose-dependent Insulinotropic Polypeptide Receptor (hGIPR). Following agonist activation, hGIPR associates with the G-protein complex causing the Gas subunit to exchange bound guanosine diphosphate (GDP) for guanosine triphosphate (GTP), followed by dissociation of the Gas-GTP complex. The activated Gas subunit can couple to downstream effectors to regulate the levels of second messengers or cAMP within the cell. Thereby, determination of intracellular cAMP levels allows for pharmacological characterization. Intracellular cAMP levels are quantitated using a homogenous assay utilizing the Homogeneous Time Resolved Fluorescence (HTRF) technology from Perkin Elmer. […] The two entities compete for binding to a monoclonal anti-cAMP antibody labeled with cryptate. The specific signal is inversely proportional to the concentration of cAMP in the cells.
Test compounds were solubilized to a concentration of 30 mM in 100% dimethyl sulfoxide (DMSO). An 11-point dilution series using 1 in 3.162-fold serial dilutions was created in 100% DMSO with a top concentration of 8 mM. […]
Frozen assay-ready vials (at 1×10^7 cells/vial) of CHO-K1 cells stably expressing the Gs-coupled human GIPR receptor (Eurofins, DiscoverX, Cat No. 95-0146C2) were thawed, counted, and resuspended in assay buffer consisting of Hank's Balanced Salt Solution (HBSS, Lonza Cat No. 10-527) containing 20 mM (4-(2-hydroxyethyl)-1-piperazineethanesulfonic acid (HEPES, Lonza, Cat No. 17-737E), 0.1% bovine serum albumin (BSA, Sigma, Cat No. A7979), and 200 μM 3-isobutyl-1-methylxanthine (IBMX, Sigma, Cat No. 15879) at a density of 4×10^5 cells/mL. Cells were added to assay plate (5 μL/well of 4×10^5 cells/mL stock for 2,000 cells/well final) containing 50 nL of 200×FAC test compound, and incubated at 37° C. […] ([…]: 5% CO2), after which intracellular cAMP levels were quantified as per Perkin Elmer's protocol (5 μL of d2 and then 5 μL cryptate, incubated for 1 hour at room temperature). Emission spectra of samples were measured on a Pherastar plate reader (BMG Labtech Inc) using a HTRF protocol (excitation, 320 nm; emission, 665 nm/620 nm).
([…]: 5% CO2), with a micro-clime lid. […] ([…]: 5% CO2), after which intracellular cAMP levels were quantified and samples measured as described previously. […]
Data were analyzed using the ratio of fluorescence intensity at 620 and 665 nm for each well, extrapolated from the cAMP standard curve to express data as nanomolar (nM) cAMP for each well. […]

human GLP-1R [2] = biological target: human GLP-1R (Homo sapiens, UniProt P43220, G168S); assay: CHO GLP-1R Clone H6 cAMP HTRF agonist assay (Assay 1, high receptor density); settings: for EC50: CHO GLP-1R clone H6, cAMP HTRF, geometric mean; for Emax: CHO GLP-1R clone H6, arithmetic mean, relative to saturating GLP-1 (1 μM), read-out: Assay 1 Emax (%)
Method in brief: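 Replicate runs were pooled. Potencies were averaged geometrically and maximal efficacies arithmetically, then rounded to two significant figures.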

human GLP-1R [3] = biological target: human GLP-1R (Homo sapiens, UniProt P43220, L260F); assay: CHO GLP-1R Clone C6 cAMP HTRF agonist assay (Assay 2, low receptor density); settings: for EC50: CHO GLP-1R clone C6, cAMP HTRF, geometric mean; for Emax: CHO GLP-1R clone C6, arithmetic mean, relative to saturating GLP-1 (1 μM)
Source text: In Table 5 and Table 6, assay data are presented to two (2) significant figures as the geometric mean (EC50s) and arithmetic mean (Emax) based on the number of replicates listed (Number). A blank cell means there was no data for that Example or the Emax was not calculated.

[4] = CHO-K1 cells stably expressing human GIPR, inhibition of hGIP (EC80)-stimulated cAMP, 2 h preincubation

human GLP-1R (Homo sapiens, UniProt P43220, G168S), sequence (P43220 24-463 G168S): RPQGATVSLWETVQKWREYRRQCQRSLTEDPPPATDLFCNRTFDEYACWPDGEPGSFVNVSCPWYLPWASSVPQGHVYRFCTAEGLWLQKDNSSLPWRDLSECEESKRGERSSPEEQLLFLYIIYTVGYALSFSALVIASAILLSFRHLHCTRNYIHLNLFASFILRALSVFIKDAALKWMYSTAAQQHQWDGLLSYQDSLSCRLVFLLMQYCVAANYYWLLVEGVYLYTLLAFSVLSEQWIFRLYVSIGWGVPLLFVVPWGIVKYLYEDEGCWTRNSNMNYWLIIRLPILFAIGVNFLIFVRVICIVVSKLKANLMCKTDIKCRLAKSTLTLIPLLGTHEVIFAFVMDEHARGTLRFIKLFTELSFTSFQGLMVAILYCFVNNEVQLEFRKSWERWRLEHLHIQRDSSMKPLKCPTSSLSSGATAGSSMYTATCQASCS
human GLP-1R (Homo sapiens, UniProt P43220, L260F), sequence (P43220 24-463 L260F): as the sequence (P43220 24-463 G168S) above, with S145G, L237F counted along it

Compound	IC50 [1] [nM]	IC50 [1, 4] [nM]	EC50 (human GLP-1R [2]) [nM]	Emax (human GLP-1R [2]) [%]	EC50 (human GLP-1R [3]) [nM]	Emax (human GLP-1R [3]) [%]
CC(C)c1ccc(NC(=O)N2CC[C@H](C)[C@@H]2C(=O)Nc2ccc(-c3ccc(C(=O)O)cc3)cc2)cc1 (single isomer, unassigned) [Compound 34A, 4′-{[(3S)-3-Methyl-1-{[4-(propan-2-yl)phenyl]carbamoyl}-D-prolyl]amino}[1,1′-biphenyl]-4-carboxylic acid or 4′-{[(3R)-3-Methyl-1-{[4-(propan-2-yl)phenyl]carbamoyl}-L-prolyl]amino}[1,1′-biphenyl]-4-carboxylic acid]	10	–	–	–	–	–
CC(C)c1ccc(NC(=O)N2CC[C@@H](C)[C@@H]2C(=O)Nc2ccc(-c3ccc(C(=O)O)cc3)cc2)cc1 (single isomer, unassigned) [Compound 35A, 4′-{[(3R)-3-Methyl-1-{[4-(propan-2-yl)phenyl]carbamoyl}-D-prolyl]amino}[1,1′-biphenyl]-4-carboxylic acid or 4′-{[(3S)-3-Methyl-1-{[4-(propan-2-yl)phenyl]carbamoyl}-L-prolyl]amino}[1,1′-biphenyl]-4-carboxylic acid]	4.6	–	–	–	–	–
Cc1cc(NC(=O)N2CCC[C@@H]2C(=O)Nc2ccc(-c3ccc(C(=O)O)nc3)cc2)ccc1C(C)C [Compound 19A, 5-{4-[(1-{[3-Methyl-4-(propan-2-yl)phenyl]carbamoyl}-D-prolyl)amino]phenyl}pyridine-2-carboxylic acid]	–	11	–	–	–	–
O=C(O)c1ccc(-c2ccc(NC(=O)[C@H]3CCCN3C(=O)Nc3ccc(C(F)(F)F)cc3)nc2)cc1 [Compound 31A, 4-{6-[(1-{[4-(Trifluoromethyl)phenyl]carbamoyl}-D-prolyl)amino]pyridin-3-yl}benzoic acid]	–	7.8	–	–	–	–
CC[C@H]1CN(c2cccc(OCc3ccc(Cl)cc3F)n2)CCN1Cc1nc2ccc(C(=O)O)cc2n1CCOC [Compound 353B, 2-{[(2S)-4-{6-[(4-chloro-2-fluorobenzyl)oxy]pyridin-2-yl}-2-ethylpiperazin-1-yl]methyl}-1-(2-methoxyethyl)-1H-benzimidazole-6-carboxylic acid]	–	–	5.6	80	200	89

Now from value to molecule:

IC50 [1] [nM]	IC50 [1, 4] [nM]	EC50 (human GLP-1R [2]) [nM]	Emax (human GLP-1R [2]) [%]	EC50 (human GLP-1R [3]) [nM]	Emax (human GLP-1R [3]) [%]	Compound
–	–	0.71	81	11	100	CN(C)CCn1c(CN2CCC(c3cccc(OCc4ccc(Cl)cc4F)n3)CC2)nc2ccc(C(=O)O)cc21 [Compound 238B, 2-[(4-{6-[(4-chloro-2-fluorobenzyl)oxy]pyridin-2-yl}piperidin-1-yl)methyl]-1-[2-(dimethylamino)ethyl]-1H-benzimidazole-6-carboxylic acid]
–	–	0.59	83	6.8	93	CC1(Cn2c(CN3CCC(c4cccc(OCc5ccc(Cl)cc5F)n4)CC3)nc3ccc(C(=O)O)cc32)COC1 [Compound 251B, 2-[(4-{6-[(4-chloro-2-fluorobenzyl)oxy]pyridin-2-yl}piperidin-1-yl)methyl]-1-[(3-methyloxetan-3-yl)methyl]-1H-benzimidazole-6-carboxylic acid]
–	–	150	74	1200	44	N#Cc1ccc(COc2cccc(C3CCN(Cc4nc5ccc(C(=O)O)cc5n4Cc4ncco4)CC3)n2)c(F)c1 [Compound 139B, 2-[(4-{6-[(4-cyano-2-fluorobenzyl)oxy]pyridin-2-yl}piperidin-1-yl)methyl]-1-(1,3-oxazol-2-ylmethyl)-1H-benzimidazole-6-carboxylic acid]
–	–	180	78	3500	90	COCCn1c(CN2CCN(c3cccc(OCc4ccc(Cl)cc4F)n3)[C@@H](C)C2)nc2ccc(C(=O)O)cc21 [Compound 183B, 2-{[(3S)-4-{6-[(4-chloro-2-fluorobenzyl)oxy]pyridin-2-yl}-3-methylpiperazin-1-yl]methyl}-1-(2-methoxyethyl)-1H-benzimidazole-6-carboxylic acid]
–	–	16	85	320	88	N#Cc1ccc(COc2cccc(N3CCN(Cc4nc5ccc(C(=O)O)cc5n4C[C@@H]4CCO4)CC3)n2)c(F)c1 [Compound 108B, 2-[(4-{6-[(4-cyano-2-fluorobenzyl)oxy]pyridin-2-yl}piperazin-1-yl)methyl]-1-[(2S)-oxetan-2-ylmethyl]-1H-benzimidazole-6-carboxylic acid]
–	–	28	82	350	70	COCCn1c(CN2CC[C@H](c3cccc(OCc4ccc(Cl)cc4F)n3)C[C@H]2C)nc2ccc(C(=O)O)cc21 (relative stereo) [Compound 357B, trans 2-{[4-{6-[(4-Chloro-2-fluorobenzyl)oxy]pyridin-2-yl}-2-methylpiperidin-1-yl]methyl}-1-(2-methoxyethyl)-1H-benzimidazole-6-carboxylic acid]
–	–	96	86	1400	94	Cn1nccc1Cn1c(CN2CCC(c3cccc(OCc4ccc(Cl)cc4F)n3)CC2)nc2ccc(C(=O)O)cc21 [Compound 296B, 2-[(4-{6-[(4-chloro-2-fluorobenzyl)oxy]pyridin-2-yl}piperidin-1-yl)methyl]-1-[(1-methyl-1H-pyrazol-5-yl)methyl]-1H-benzimidazole-6-carboxylic acid]
